Values joined by “and” are separate entries in the source; they are usually repeats but may differ in a detail not shown here. Identical values can stand only once. “Also recorded” adds a separate entry of the source.
How the values were obtained:
[1] = tested on: Human influenza A virus subtype /PR/8/34 H1N1; experiment: microbe, parasite or virus in culture; type: cell-based, Influenza A/PR/8/34 (H1N1); settings: MDCK
H1N1 virions = type: binding, Influenza A virus (H1N1)
[2] = tested on: Candida albicans (ATCC# 96133); experiment: microbe, parasite or virus in culture; settings: ATCC96133, read-out: IC50 value, adhesion inhibition
[3] = tested on: Escherichea coli (ATCC# 53499); experiment: microbe, parasite or virus in culture; settings: Escherichia coli, ATCC53499, read-out: IC50 value, adhesion inhibition

Structure (SMILES) | IC50 [1] | direct binding to H1N1 virus surface (H1N1 virions) | IC50 [2] | IC50 [3]
NC12CC3CC(CC(C3)C1)C2 [Amantadine] | 4.7 µg/mL and 27 µM | – | – | –
CCOC(=O)C1=C[C@@H](OC(CC)CC)[C@H](NC(C)=O)[C@@H](N)C1 [Oseltamivir] | 0.1 µg/mL and 320 nM | – | – | –
O=C1c2c(O)cc(O)cc2OC(c2cc(O)c(O)c(O)c2)C1O (stereo not drawn) [Tristenonol aglycone, 3,5,7-Trihydroxy-2-(3,4,5-trihydroxyphenyl)-chroman-4-one] | 2.8 µg/mL and 5.4 µM | does bind directly to the virus surface; also recorded: bound to the H1N1 virus surface | 89.1 µM | 60 µM

From patent US20090092624A1, “Antiinfective Flavononol Compounds and Methods of Use Thereof” (priority 2007, published 2009)
